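Cultured in 96-well plates, cells were exposed to test compound for 48 hours across five concentrations. TGI: total growth inhibition.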
Columns and labels:
Assay in all cases: DTP human tumour cell line panel, 48 h
SK-MEL-28 melanoma = test system: SK-MEL-28 melanoma
IGROV1 ovarian = test system: IGROV1 ovarian
OVCAR-8 ovarian = test system: OVCAR-8 ovarian
SF-295 CNS = test system: SF-295 CNS
EKVX NSCLC = test system: EKVX NSCLC
HCT-116 colon = test system: HCT-116 colon
SK-MEL-2 melanoma = test system: SK-MEL-2 melanoma
786-0 renal = test system: 786-0 renal
RPMI-8226 leukemia = test system: RPMI-8226 leukemia
OVCAR-5 ovarian = test system: OVCAR-5 ovarian
M14 melanoma = test system: M14 melanoma
HOP-62 NSCLC = test system: HOP-62 NSCLC
KM12 colon = test system: KM12 colon
NCI/ADR-RES ovarian = test system: NCI/ADR-RES ovarian
MOLT-4 leukemia = test system: MOLT-4 leukemia
K-562 leukemia = test system: K-562 leukemia
SK-MEL-5 melanoma = test system: SK-MEL-5 melanoma
TK-10 renal = test system: TK-10 renal
UACC-62 melanoma = test system: UACC-62 melanoma
SR leukemia = test system: SR leukemia
SW-620 colon = test system: SW-620 colon
LOX IMVI melanoma = test system: LOX IMVI melanoma
SNB-75 CNS = test system: SNB-75 CNS
A498 renal = test system: A498 renal
RXF 393 renal = test system: RXF 393 renal
NCI-H226 lung = test system: NCI-H226 lung
MDA-MB-435 = test system: MDA-MB-435
NCI-H23 lung = test system: NCI-H23 lung
MDA-N = test system: MDA-N
ACHN renal = test system: ACHN renal
COLO 205 colon = test system: COLO 205 colon
DU-145 prostate = test system: DU-145 prostate
MDA-MB-231 breast = test system: MDA-MB-231 breast
OVCAR-4 ovarian = test system: OVCAR-4 ovarian
BT-549 breast = test system: BT-549 breast
UACC-257 melanoma = test system: UACC-257 melanoma
SNB-19 CNS = test system: SNB-19 CNS
HCT-15 colon = test system: HCT-15 colon
UO-31 renal = test system: UO-31 renal
HOP-92 NSCLC = test system: HOP-92 NSCLC
SN12C renal = test system: SN12C renal
OVCAR-3 ovarian = test system: OVCAR-3 ovarian
U251 CNS = test system: U251 CNS
NCI-H460 lung = test system: NCI-H460 lung
T-47D breast = test system: T-47D breast
PC-3 prostate = test system: PC-3 prostate
CAKI-1 renal = test system: CAKI-1 renal
HCC-2998 colon = test system: HCC-2998 colon
MCF7 breast = test system: MCF7 breast
CCRF-CEM leukemia = test system: CCRF-CEM leukemia
SF-539 CNS = test system: SF-539 CNS
A549 NSCLC = test system: A549 NSCLC
NCI-H522 lung = test system: NCI-H522 lung
SF-268 CNS = test system: SF-268 CNS
HL-60(TB) leukemia = test system: HL-60(TB) leukemia
MALME-3M melanoma = test system: MALME-3M melanoma
HT29 colon = test system: HT29 colon
HS 578T breast = test system: HS 578T breast

## CC(=O)O[C@H]1CC[C@H]2[C@@H]3CCC4=CC(=O)C=C[C@]4(O)[C@H]3CC[C@]12C
SK-MEL-28 melanoma
  TGI: > 100 µM
IGROV1 ovarian
  TGI: > 100 µM
OVCAR-8 ovarian
  TGI: > 86 µM
SF-295 CNS
  TGI: > 100 µM
EKVX NSCLC
  TGI: > 80.7 µM
HCT-116 colon
  TGI: > 100 µM
SK-MEL-2 melanoma
  TGI: > 73.4 µM
786-0 renal
  TGI: > 100 µM
RPMI-8226 leukemia
  TGI: 44.3 µM
OVCAR-5 ovarian
  TGI: > 100 µM
M14 melanoma
  TGI: > 100 µM
HOP-62 NSCLC
  TGI: > 100 µM
KM12 colon
  TGI: 52.8 µM
NCI/ADR-RES ovarian
  TGI: 46.2 µM
MOLT-4 leukemia
  TGI: 25.7 µM
K-562 leukemia
  TGI: 27.5 µM
SK-MEL-5 melanoma
  TGI: 23.4 µM
TK-10 renal
  TGI: > 100 µM
UACC-62 melanoma
  TGI: > 90.2 µM
SR leukemia
  TGI: 5.1 µM
SW-620 colon
  TGI: > 57.5 µM
LOX IMVI melanoma
  TGI: > 54.4 µM
SNB-75 CNS
  TGI: 61.3 µM
A498 renal
  TGI: > 100 µM
RXF 393 renal
  TGI: 76 µM
NCI-H226 lung
  TGI: > 96.7 µM
MDA-MB-435
  TGI: 49.5 µM
NCI-H23 lung
  TGI: > 62.4 µM
MDA-N
  TGI: > 60.9 µM
ACHN renal
  TGI: > 100 µM
COLO 205 colon
  TGI: > 55.6 µM
DU-145 prostate
  TGI: > 100 µM
MDA-MB-231 breast
  TGI: > 100 µM
OVCAR-4 ovarian
  TGI: > 100 µM
BT-549 breast
  TGI: > 79.8 µM
UACC-257 melanoma
  TGI: > 81.9 µM
SNB-19 CNS
  TGI: > 100 µM
HCT-15 colon
  TGI: > 100 µM
UO-31 renal
  TGI: > 100 µM
HOP-92 NSCLC
  TGI: 92.3 µM
SN12C renal
  TGI: > 100 µM
OVCAR-3 ovarian
  TGI: > 100 µM
U251 CNS
  TGI: > 100 µM
NCI-H460 lung
  TGI: > 100 µM
T-47D breast
  TGI: > 100 µM
PC-3 prostate
  TGI: > 93.1 µM
CAKI-1 renal
  TGI: > 100 µM
HCC-2998 colon
  TGI: > 100 µM
MCF7 breast
  TGI: > 83.5 µM
CCRF-CEM leukemia
  TGI: 46.5 µM
SF-539 CNS
  TGI: > 100 µM
A549 NSCLC
  TGI: > 87.9 µM

## O=c1oc2ccccc2c(O)c1C(c1cnc2ccccc2c1)c1c(O)c2ccccc2oc1=O
NCI-H522 lung
  TGI: > 100 µM
SK-MEL-28 melanoma
  TGI: > 100 µM
IGROV1 ovarian
  TGI: > 100 µM
OVCAR-8 ovarian
  TGI: > 100 µM
EKVX NSCLC
  TGI: > 100 µM
HCT-116 colon
  TGI: > 100 µM
SK-MEL-2 melanoma
  TGI: > 100 µM
786-0 renal
  TGI: > 100 µM
RPMI-8226 leukemia
  TGI: > 100 µM
HOP-62 NSCLC
  TGI: > 100 µM
KM12 colon
  TGI: > 100 µM
NCI/ADR-RES ovarian
  TGI: > 100 µM
SF-268 CNS
  TGI: 67.2 µM
MOLT-4 leukemia
  TGI: 97.7 µM
K-562 leukemia
  TGI: > 100 µM
SK-MEL-5 melanoma
  TGI: > 100 µM
TK-10 renal
  TGI: > 100 µM
UACC-62 melanoma
  TGI: 35.4 µM
HL-60(TB) leukemia
  TGI: 90 µM
SW-620 colon
  TGI: > 100 µM
LOX IMVI melanoma
  TGI: > 100 µM
MALME-3M melanoma
  TGI: > 100 µM
SNB-75 CNS
  TGI: 52.7 µM
A498 renal
  TGI: > 100 µM
NCI-H226 lung
  TGI: > 100 µM
HT29 colon
  TGI: > 100 µM
MDA-MB-435
  TGI: > 100 µM
NCI-H23 lung
  TGI: > 100 µM
MDA-N
  TGI: 69.5 µM
COLO 205 colon
  TGI: > 100 µM
DU-145 prostate
  TGI: > 100 µM
MDA-MB-231 breast
  TGI: > 100 µM
OVCAR-4 ovarian
  TGI: > 100 µM
BT-549 breast
  TGI: 68 µM
UACC-257 melanoma
  TGI: > 100 µM
SNB-19 CNS
  TGI: > 100 µM
HCT-15 colon
  TGI: > 100 µM
UO-31 renal
  TGI: > 100 µM
HOP-92 NSCLC
  TGI: 58.6 µM
SN12C renal
  TGI: 76.6 µM
OVCAR-3 ovarian
  TGI: > 100 µM
U251 CNS
  TGI: > 100 µM
NCI-H460 lung
  TGI: > 100 µM
T-47D breast
  TGI: > 100 µM
PC-3 prostate
  TGI: > 100 µM
CAKI-1 renal
  TGI: > 100 µM
HS 578T breast
  TGI: 80.6 µM
CCRF-CEM leukemia
  TGI: > 100 µM

Reference: PubChem BioAssay (NCI)
